Assay results published in patent publication US20140057954A1, “CHEMICAL COMPOSITION” (FOREST LABORATORIES HOLDINGS LTD., priority 2012, published 2014).
In brackets after ≈: the same amount, converted by molar mass.

Experiments:
[1] = Crossover trial of nebivolol exposure, alone versus in free combination with valsartan, once daily for 7 days; format: in vivo, human
Method: […], 3-way crossover trial was performed in healthy subjects to assess the pharmacokinetic (pK) and pharmacodynamic (pD) impact of administered valsartan on nebivolol.
28 subjects aged 19-45 were randomized to the following once-daily treatments for 7 days under fasted conditions: (A) nebivolol alone (20 mg tablet) and (B) concomitant nebivolol 20 mg+valsartan 320 mg in free combination. Blood samples were collected from each subject for pK analysis at the following time points: 0 hour (predose) on Days 1, 14, and 27 and at 0 hour (predose) and 1, 2, 4, 6, 10, 16, 24, 36, and 48 hours postdose on Days 7, 20, and 33.
The bioanalytical procedure used to measure plasma concentrations of nebivolol was a LC/MS/MS (liquid chromatography/tandem mass spectrometry) method.
Among the pK parameters measured were AUC0-τ,ss (area under the plasma concentration versus time curve from time 0 to the dosing interval, τ, at steady state); Cdmax,ss (maximum plasma drug concentration at steady state); Tmax,ss (time of maximum plasma drug concentration following drug administration at steady state); Cmin,ss minimum plasma drug concentration at steady state); Cav,ss (average plasma drug concentration at steady state); and CL/F (apparent total clearance from plasma after oral administration). These pK parameters were derived from plasma concentrations using noncompartmental analysis with the software program SAS (version 9.1.3). In addition, the 2-sided 90% confidence interval (CI) for the ratio of geometric means of Cmax and AUC0-τ,ss between nebivolol coadministered with valsartan and nebivolol alone were constructed.

[2] = tested on: patients with mild to moderate hypertension; test: Population PK/PD analysis (Emax model) of nebivolol plasma concentration versus mean sitting DBP; format: in vivo, human
Method: The study involved first determining the relationship between nebivolol plasma concentration and the therapeutic diastolic blood pressure (DBP)-reducing effect by nebivolol when administered alone. A population PK/PD analysis was performed to assess the relationship between nebivolol plasma concentration and its therapeutic DBP-reducing effect. The analysis utilized PK/PD data that was collected from patients with mild to moderate hypertension following a Phase 3, double-blind, placebo-controlled, multicenter study. During the study, patients were randomized to 7 parallel treatment arms wherein the patient received either a placebo or any of 6 different doses of nebivolol (between 1.25 and 40 mg). The patients were also stratified across all treatment arms by covariates of race (African American vs non-African American), age (<65 vs≧65 years), gender, diabetes status (history of diabetes mellitus vs no history of diabetes mellitus), and by metabolism of nebivolol (PM vs EM of CYP 2D6). Blood pressure data was collected from each patient initially and at days 28 and 84 of treatment. The study results were refined and updated using nonlinear mixed-effects modeling (NONMEM) software, version VII, with first-order conditional estimation/interaction method. […] Moreover, the EC50 (half maximal effective concentration) was determined.

[3] = coadministered with valsartan versus nebivolol alone

- decrease in mean nebivolol AUC0-τ [1, 3]: 15-20%
- decrease in mean nebivolol Cmax [1, 3]: 40-50%
- AUC ([1]; human, plasma, oral, 20 mg nebivolol once daily for 7 days, alone or with 320 mg valsartan, healthy subjects, fasted, steady state, read-out: nebivolol AUC0-τ, Arithmetic Mean): 41.5 ng·h/mL
- Cmax ([1]; human, plasma, oral, 20 mg nebivolol once daily for 7 days, alone or with 320 mg valsartan, healthy subjects, fasted, steady state, read-out: nebivolol Cmax, Arithmetic Mean): 8.02 ng/mL
- Cmax and CSS,max reduction ([1]; in the presence of valsartan): approximately 50%
- mean reduction in nebivolol Cavg and CSS,avg ([1]; in the presence of valsartan): ~20%
- EC50 ([2]; Homo sapiens, Emax model, mean sitting DBP, Phase 3 data, nebivolol 1.25-40 mg, read-out: EC50 estimate of d,l-nebivolol concentrations (DBP PK/PD model)): 0.0179 ng/mL (≈ 0.0441 nM)
SMILES: OC(CNCC(O)C1CCc2cc(F)ccc2O1)C1CCc2cc(F)ccc2O1 (centres unmarked) [nebivolol]
- Emax in DBP reduction ([2]; after correction for the placebo effect): approximately 5 mm Hg
